# Measured values reported in ChEMBL document CHEMBL1159172, “Modelisation, Synthesis and Anti-HIV activities of N,N,N,N,N-pentakistetraazamacrocycles salts derivatives” (Bioorg Med Chem Lett, 1997).
# Key:
# MT4 [1] = experiment: The compound was tested for its cytotoxic activity against HIV-1 replication in MT-4 cells, (50% cytotoxic concentration).; format: functional, Homo sapiens; design: unit not given here
# [2] = Selectivity index of EC50 and CC50; format: functional
# MT4 [3] = experiment: The compound was tested for its inhibitory activity against HIV-1 replication in MT-4 cells(50% antiviral effective concentration); IA: inactive.; format: functional, cell-based, Homo sapiens
Compound,CC50 (MT4 [1]),SI [2],EC50 (MT4 [3])
C1CNCCNCCCN(CCCN2CCCNCCNCCCNCC2)CCNC1,>100,> 100,
CC(C)(C)OC(=O)N(CCCCCN1CCCN(CCCCCN(Cc2ccccc2)C(=O)OC(C)(C)C)CCN(CCCCCN(Cc2ccccc2)C(=O)OC(C)(C)C)CCC[N+](CCCCCN(Cc2ccccc2)C(=O)OC(C)(C)C)(CCCCCN(Cc2ccccc2)C(=O)OC(C)(C)C)CCC1)Cc1ccccc1.Cc1ccc(S(=O)(=O)[O-])cc1,10,,Not Active
c1ccc(CNCCCCCN2CCCN(CCCCCNCc3ccccc3)CCN(CCCCCNCc3ccccc3)CCCN(CCCCCNCc3ccccc3)CC2)cc1,10,10,
[Cl-].c1ccc(CNCCCCCN2CCCN(CCCCCNCc3ccccc3)CC[N+](CCCCCNCc3ccccc3)(CCCCCNCc3ccccc3)CCCN(CCCCCNCc3ccccc3)CC2)cc1,5,50,
CC(C)(C)OC(=O)N(CCCCCN1CCCN(CCCCCN(Cc2ccccc2)C(=O)OC(C)(C)C)CC[N+](CCCCCN(Cc2ccccc2)C(=O)OC(C)(C)C)(CCCCCN(Cc2ccccc2)C(=O)OC(C)(C)C)CCCN(CCCCCN(Cc2ccccc2)C(=O)OC(C)(C)C)CC1)Cc1ccccc1.Cc1ccc(S(=O)(=O)[O-])cc1,50,10,
CC(C)(C)OC(=O)N(CCCCCN1CCCN(CCCCCN(Cc2ccccc2)C(=O)OC(C)(C)C)CCN(CCCCCN(Cc2ccccc2)C(=O)OC(C)(C)C)CCCN(CCCCCN(Cc2ccccc2)C(=O)OC(C)(C)C)CC1)Cc1ccccc1,>10,> 10,
[Cl-].c1ccc(CNCCCCCN2CCCN(CCCCCNCc3ccccc3)CCN(CCCCCNCc3ccccc3)CCC[N+](CCCCCNCc3ccccc3)(CCCCCNCc3ccccc3)CCC2)cc1,10,,Not Active
CC(C)(C)OC(=O)N(CCCCCN1CCCN(CCCCCN(Cc2ccccc2)C(=O)OC(C)(C)C)CCCN(CCCCCN(Cc2ccccc2)C(=O)OC(C)(C)C)CCN(CCCCCN(Cc2ccccc2)C(=O)OC(C)(C)C)CCC1)Cc1ccccc1,>50,> 5,
c1ccc(CNCCCCCN2CCCN(CCCCCNCc3ccccc3)CCCN(CCCCCNCc3ccccc3)CCN(CCCCCNCc3ccccc3)CCC2)cc1,1,,
